Common to all, as to experiment: area under concentration-response curve (viability) (AUC (a.u.)); higher = less active
Conditions in all cases: 48 h

Assay [1] concerns CU-ACC1. In a few lines:
(§1)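 Library compounds were tested at 11 concentrations against three adrenocortical carcinoma cell lines in 1,536-well plates. CellTiter-Glo luminescence was read after 48 h and normalised per plate to vehicle and empty-well controls. Only inhibitory or non-responding curve classes from fitted concentration-response curves contributed AC50 and area under the curve.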

Assay [2] deals with CU-ACC2. In short, it runs like this:
as §1

The subject of assay [3] is NCI-H295R. In short, it runs like this: as §1

The values below come from the supplement of paper PMC10949913.

For the compound `Cc1c(N)nc([C@H](CC(N)=O)NC[C@@H](N)C(N)=O)nc1C(=O)N[C@H](C(=O)N[C@@H](C)[C@H](O)[C@@H](C)C(=O)N[C@@H](C(=O)NCCc1nc(-c2nc(C(=O)NCCC[S+](C)C)cs2)cs1)[C@@H](C)O)C(O[C@H]1O[C@H](CO)[C@H](O)[C@@H](O)[C@H]1O[C@H]1O[C@H](CO)[C@@H](O)[C@H](OC(N)=O)[C@@H]1O)c1c[nH]cn1` (some centres not stated), the “area under concentration-response curve” value in assay [1] was determined as 508; in assay [2], 614; in assay [3], 530.

In the case of `CC1=C(/C=C/C(C)=C/C=C/C(C)=C/C(=O)O)C(C)(C)CCC1`, the “area under concentration-response curve” value in assay [1] was found to be 503; in assay [2] it was 592; in assay [3] it was 476.

Turning to `CNC[C@H](O)c1cccc(O)c1`, the entries for the “area under concentration-response curve” value in assay [1], in assay [2] and in assay [3] were 440, 508 and 449, respectively.

For the compound `O=C(O)c1ccc(CN2CCC(CN[C@@H]3C[C@H]3c3ccccc3)CC2)cc1`, the “area under concentration-response curve” value in assay [1] is 465; in assay [2], 540; in assay [3], 490.

For the compound `Cn1c(CNc2ccc(C(=N)N)cc2)nc2cc(C(=O)N(CCC(=O)O)c3ccccn3)ccc21`, the entries for the “area under concentration-response curve” value in assay [1], in assay [2] and in assay [3] were 715, 929 and 834, respectively.

As to `Cc1cnc(-c2cc(N3CCN(C(=O)CC[S+](C)(=O)[O-])CC3)ncc2Cl)c(C)c1`, the entries for the “area under concentration-response curve” value in assay [1], in assay [2] and in assay [3] were 536, 534 and 551, respectively.

For the compound `CC(=O)N1CCN(c2ccc(NC(=O)Cc3cnc(-c4ccnc(F)c4)c(C)c3)nc2)CC1`, the “area under concentration-response curve” value amounted to 550 in assay [1], 643 in assay [2] and 582 in assay [3].

For the compound `CCN1C(=O)\C(=C/C2=C1N=C(NC3=CC=C(N4CCNCC4)C(=C3)F)N=C2)C5=CC=C(Cl)C=C5Cl`, the “area under concentration-response curve” value came to 518 in assay [1], 580 in assay [2] and 537 in assay [3].

Consider `CC[C@H](NC(=O)[C@H](C[S+](=O)([O-])CC1CC1)N[C@@H](c1ccc(F)cc1)C(F)(F)F)C(=O)C(=O)NC1CC1`, for which the “area under concentration-response curve” value in assay [1] came to 534; in assay [2] it was 510; in assay [3], 538.

`CCCc1nc2c(C)cc(-c3nc4ccccc4n3C)cc2n1Cc1ccc(-c2ccccc2C(=O)O)cc1`: the “area under concentration-response curve” value in assay [1] was 561; in assay [2], 639; in assay [3], 599.

Take `COc1ccc(C(=O)N2CCN(c3ccc4c(c3)CCC(=O)N4)CC2)cc1OC`: the “area under concentration-response curve” value came to 458 in assay [1], 562 in assay [2] and 554 in assay [3].

For the compound `CC[C@H](NC(C)C)[C@H](O)C1=CC=C(O)C2=C1\C=C/C(=O)N2`, the results for the “area under concentration-response curve” value in assay [1], in assay [2] and in assay [3] were 566, 650 and 564, respectively.

Regarding `O=c1cc(O)c(Cl)c[nH]1`, the “area under concentration-response curve” value in assay [1] was determined as 558; in assay [2], 641; in assay [3], 586.

On to `CC(C)C(=O)OCC(=O)[C@@]12O[C@@H](O[C@@H]1C[C@H]3[C@@H]4CC\C5=C\C(=O)\C=C/[C@]5(C)[C@H]4[C@@H](O)C[C@]23C)C6CCCCC6`, for which the “area under concentration-response curve” value in assay [1] came to 523; in assay [2], 606; in assay [3], 531.

As for `O=C(CO)N1CCC(c2n[nH]c(-c3ccc(Cl)cc3)c2-c2ccncn2)CC1`, the “area under concentration-response curve” value is 520 in assay [1], 454 in assay [2] and 515 in assay [3].

Take `C[C@](N)(Cc1ccc(O)c(O)c1)C(=O)O`: the “area under concentration-response curve” value in assay [1] stood at 475; in assay [2], 477; in assay [3] it was 524.

`O=C(O)C1CCCN(CCC=C(c2ccccc2)c2ccccc2)C1` (configuration not stated): the “area under concentration-response curve” value in assay [1] came to 540; in assay [2] it was 520; in assay [3], 539.

As to `COc1ccc(Nc2nccc(NCCO)n2)cc1`, the “area under concentration-response curve” value in assay [1] is 496; in assay [2], 578; in assay [3], 517.

Turning to `C[S+]([O-])(=O)NC1=CC2=C(C=C1OC3=CC=CC=C3)C(=O)\C(=C/O2)NC=O`, the “area under concentration-response curve” value in assay [1] is 477; in assay [2] it was 508; in assay [3] it was 487.
